MIC data for six compounds are collected here from ChEMBL document CHEMBL1147392, “Antimicrobial compounds from Petalostemum purpureum” (1993).

As a reminder, the MIC is the smallest concentration in the dilution series that meets the test's criterion for growth inhibition. The low end stands for a more susceptible organism, the high end for a less susceptible organism.

Test [1] relates to Mycobacterium intracellulare. Put plainly: Antimicrobial activity against Mycobacterium intracellular ATCC 23068 by twofold serial macrobroth dilution assay. The format is functional. (In general: Broth dilution looks for growth in wells or tubes with falling amounts of substance.)
Another test concerns Staphylococcus aureus. Put plainly: Antimicrobial activity against Staphylococcus aureus ATCC 6538 by twofold serial macrobroth dilution assay.
The next test has as its system Candida albicans. Put plainly: Antimicrobial activity against Candida albicans NIH B311 by twofold serial macrobroth dilution assay. The format is functional.
For the next test, the system named is Escherichia coli. Briefly: Antimicrobial activity against Escherichia coli ATCC 10536 by twofold serial macrobroth dilution assay. The format is functional.
In the next test the test system is Bacillus subtilis. Put plainly: Antimicrobial activity against Bacillus subtilis ATCC 6633 by twofold serial macrobroth dilution assay. The format is functional.
A further test deals with Cryptococcus neoformans. Put plainly: Antimicrobial activity against Cryptococcus neoformans ATCC 32264 by twofold serial macrobroth dilution assay. The class given is functional.

≈ marks a conversion by molar mass, not a printed value.

`COc1cc(CC=C(C)C)c(-c2oc3c(CC=C(C)C)c(OC)cc(OC)c3c(=O)c2OC)c(CC=C(C)C)c1OC`: the figures for the MIC (in test [1]; in the test with Staphylococcus aureus; against Candida albicans) were 25 µg/mL (≈ 43.3 µM), 12.5 µg/mL (≈ 21.7 µM) and 25 µg/mL (≈ 43.3 µM), respectively.
Take `CN[C@@H]1[C@H](O[C@H]2[C@H](O[C@H]3[C@H](O)[C@@H](O)[C@H](N=C(N)N)[C@@H](O)[C@@H]3N=C(N)N)O[C@@H](C)[C@]2(O)C=O)O[C@@H](CO)[C@H](O)[C@H]1O` [STREPTOMYCIN]: the MIC in the test with Escherichia coli is 3.12 µg/mL (≈ 5.36 µM); in test [1] it was 1.56 µg/mL (≈ 2.68 µM); in the test with Staphylococcus aureus, 6.25 µg/mL (≈ 10.7 µM); in the test with Bacillus subtilis, 1.56 µg/mL (≈ 2.68 µM).
On to `CC(C)=CCc1cc(O)c(O)c(CC=C(C)C)c1[C@H]1Oc2c(CC=C(C)C)c(O)cc(O)c2C(=O)[C@@H]1O` [PETALOSTEMUMOL], for which the MIC is 6.25 µg/mL (≈ 12.3 µM) against Escherichia coli; 25 µg/mL (≈ 49.2 µM) with Cryptococcus neoformans; 6.25 µg/mL (≈ 12.3 µM) in test [1]; 3.12 µg/mL (≈ 6.13 µM) against Staphylococcus aureus; 12.5 µg/mL (≈ 24.6 µM) in the test with Candida albicans; 0.78 µg/mL (≈ 1.53 µM) against Bacillus subtilis.
Turning to `COc1cc(CC=C(C)C)c([C@H]2Oc3c(CC=C(C)C)c(OC)cc(O)c3C(=O)[C@@H]2O)c(CC=C(C)C)c1O`, the minimum inhibitory concentration (MIC) in test [1] was 25 µg/mL (≈ 46.6 µM).
For `COc1cc(OC)c2c(c1CC=C(C)C)O[C@H](c1c(CC=C(C)C)cc(OC)c(OC)c1CC=C(C)C)[C@@H](O)C2=O`, the results for the MIC (in test [1]; against Staphylococcus aureus; in the test on Candida albicans) were 12.5 µg/mL (≈ 22.1 µM), 12.5 µg/mL (≈ 22.1 µM) and 100 µg/mL (≈ 177 µM), respectively.
For `C[C@@H]1[C@H](O)[C@@H](C)/C=C/C=C/C=C/C=C/C=C/C=C/C=C/[C@H](O[C@@H]2O[C@H](C)[C@@H](O)[C@H](N)[C@@H]2O)C[C@@H]2O[C@](O)(C[C@@H](O)C[C@@H](O)[C@H](O)CC[C@@H](O)C[C@@H](O)CC(=O)O[C@H]1C)C[C@H](O)[C@H]2C(=O)O` [AMPHOTERICIN B], the MIC in the test with Cryptococcus neoformans is 0.2 µg/mL (≈ 0.216 µM); with Candida albicans, 0.39 µg/mL (≈ 0.422 µM).
